Experiment: Absorbance spectra of cyanine dye stocks
Format: physicochemical
Details: free dye
Method: Phycoerythrin conjugates: NGyS, NGy7 and Gy5 dye stocks are resuspended, their absorbances determined and their concentrations calculated. Phycoerythrin (PE) aliquots (2 nmoles) are treated in 0.5 M sodium carbonate pH 9.0 for 1.5 hr at room temperature with: a) 1:15, 1:30, 1:50 or 1:80 fold molar excesses of NGyS; b) 1:15 or 1:30 fold molar excesses of NGy7; or c) 1:30 or 1:50 molar excesses of Gy5. After conjugation, each reaction mixture is loaded on a PD-10 column and eluted with PBS. Fractions containing protein are pooled together for each mixture. Absorbance and fluorescence spectra of the products are obtained and energy transfer efficiency assessed.
Streptavidin conjugates: The concentration of a dye solution is determined through absorbance readings of appropriate dye dilutions. Streptavidin is treated with a molar excess (e.g., 20 fold excess) of dye in sodium carbonate buffer (pH 9.0) for one hour. After conjugation, the mixture is purified on a PD-10 column using PBS as an eluent buffer, and 0.5 mL fractions are collected. Major fractions containing the streptavidin-dye conjugate are pooled together and absorbance and emission spectra are acquired.

absorption maximum: 751.8 nm
Structure (SMILES): CCN1C(=CC=CC=CC=CC2=[N+](CCCCCC(=O)O)c3ccc(S(=O)(=O)O)cc3C2(C)C)C(C)(C)c2cc(S(=O)(=O)[O-])ccc21 [Cy7]

From US20100291706A1, “DYE CONJUGATES AND METHODS OF USE” (Millipore Corporation, priority 2009, published 2010)
